According to patent US20250368623A1, “PYRIDAZINONE-DERIVED COMPOUNDS FOR THE MODULATION OF MYC AND FOR MEDICAL USES” (GENETIC INTELLIGENCE, INC, priority 2022, published 2025):
pIC50: −log10 of the molar value.

Tests used:
Format in all cases: cell-based
HepG2 [1] = test: CellTiter-Glo 2.0 cell viability assay, HepG2; details: Homo sapiens, 48 h; CellTiter-Glo 2.0, HepG2, 2-day incubation
Description: (§2) The effect of test compounds on cell viability is also determined using the CellTiter-Glo 2.0 assay kit (Promega G9241) according to the following protocol. The human cancer cell line (e.g., HepG2) and a non-cancer human cell line (e.g., HEK-293), are seeded at 20,000 cells per well in a 96-well plate. After 1 day, the cells are treated with test compounds at various concentrations (e.g., 10 nM, 31.6 nM, 100 nM, 316 nM, 1 μM, 3.16 μM, 10 μM, 20 μM, etc.). After a 2-day incubation period, the CellTiter-Glo 2.0 assay is performed according to the kit manufacturer's protocol. […] The contents are mixed for 2 minutes on an orbital shaker to induce cell lysis, and incubated for 10 minutes at room temperature, following which the luminescent signal is measured using a microplate reader. […] The cytotoxic effect of test compounds at different concentrations is calculated by subtracting from 1 the ratio of the luminescence signal of the compound-treated sample to that of the no-compound, solvent only (DMSO)-treated sample. […] The IC50 values for the cytotoxic effect of each test compound in HepG2 cells are determined by plotting a dose-response curve to calculate the concentration of test compound that produces half of the maximum cytotoxic effect. […]

MYC protein = test: Western blot of MYC protein in human cancer cell lines; details: about 1 μM, 2-day incubation, e.g., A549 or HepG2, GAPDH loading control, vs DMSO
Description: The level of reduction of MYC protein following treatment with test compounds is also assessed by Western blot according to the following protocol. The human cancer cell lines (e.g., A549 or HepG2) are seeded at 20,000 cells per well in a 96-well plate. After 1 day, the cells are treated with test compounds at a final concentration of about 1 μM. After a 2-day incubation period, the supernatant is removed from the wells and RIPA buffer is added to create cell lysates. The lysates are analyzed by Western blot and probed with a MYC-specific antibody (e.g., Proteintech 10828-1-AP) together with a GAPDH-specific antibody (e.g., Proteintech 10494-1-AP) to serve as loading control. The intensities of Western blot bands are quantified by FIJI (Image J). The relative expression value of MYC following treatment with a test compound is calculated by dividing the intensity of the MYC band of the sample with the intensity of its own GAPDH band. The value so obtained is presented as a percentage of that of the no-compound, solvent only (DMSO)-treated sample. A lower percentage of MYC protein in a sample with respect to the DMSO-treated sample indicates greater percentage reduction in MYC protein level due to the test compound, and vice versa.

MDA-MB-231 = test: CCK-8 cell viability assay, MDA-MB-231; details: Homo sapiens; CCK-8, MDA-MB-231, 2-day or 3-day incubation, cytotoxic effect
Description: (§1) The effect of test compounds on cell viability is determined using the CCK-8 assay kit (Dojindo CK04-1000) according to the following protocol. The human cancer cell lines (e.g., A549, HepG2, JeKo-1, MDA-MB-231, etc.) and non-cancer human cell lines (e.g., HEK-293, HaCaT, etc.), are seeded at 20,000 cells per well in a 96-well plate. After 1 day, the cells are treated with test compounds at various final concentrations (e.g., 10 nM, 31.6 nM, 100 nM, 316 nM, 1 μM, 3.16 μM, 10 μM, 20 μM, etc.). After a 2-day or 3-day incubation period, 10 μL of CCK-8 solution, which contains the WST-8 dye, is added to each well according to the kit manufacturer's protocol. After incubation for 1-4 hours, the absorbance at 450 nm is measured using a microplate reader. The absorbance at 450 nm measures the amount of WST-8 that is reduced to WST-8 formazan by cellular dehydrogenases, which is directly proportional to the number of living cells. The cytotoxic effect of test compounds at different concentrations is calculated by subtracting from 1 the ratio of absorbance of the compound-treated sample at 450 nm to that of the no-compound, solvent only (DMSO)-treated sample. A higher number indicates a greater cytotoxic effect of the test compound on cells (corresponding to a greater reduction in cellular dehydrogenase activity), and vice versa. The IC50 values for the cytotoxic effect of each test compound in A549, HepG2, JeKo-1, and/or MDA-MB-231 cells are determined by plotting a dose-response curve to calculate the concentration of test compound that produces half of the maximum cytotoxic effect. The cytotoxic effect and IC50 of test compounds are also measured in a non-cancer human cell line (e.g., HEK-293, and/or HaCaT) as a proxy for healthy cells to determine the therapeutic window of the test compounds (i.e., the concentration range at which the test compounds selectively kill cancer cells but not healthy cells). The therapeutic index of a test compound is defined herein as its IC50 in HEK-293 cells divided by its IC50 in HepG2 cells.

HepG2 [2] = test: CCK-8 cell viability assay, HepG2; details: Homo sapiens; CCK-8, HepG2, 2-day or 3-day incubation, cytotoxic effect
Description: The effect of test compounds on cell viability is determined using the CCK-8 assay kit (Dojindo CK04-1000) according to the following protocol. The human cancer cell lines (e.g., A549, HepG2, JeKo-1, MDA-MB-231, etc.) and non-cancer human cell lines (e.g., HEK-293, HaCaT, etc.), are seeded at 20,000 cells per well in a 96-well plate. After 1 day, the cells are treated with test compounds at various final concentrations (e.g., 10 nM, 31.6 nM, 100 nM, 316 nM, 1 μM, 3.16 μM, 10 μM, 20 μM, etc.). After a 2-day or 3-day incubation period, 10 μL of CCK-8 solution, which contains the WST-8 dye, is added to each well according to the kit manufacturer's protocol. After incubation for 1-4 hours, the absorbance at 450 nm is measured using a microplate reader. The absorbance at 450 nm measures the amount of WST-8 that is reduced to WST-8 formazan by cellular dehydrogenases, which is directly proportional to the number of living cells. The cytotoxic effect of test compounds at different concentrations is calculated by subtracting from 1 the ratio of absorbance of the compound-treated sample at 450 nm to that of the no-compound, solvent only (DMSO)-treated sample. […] The IC50 values for the cytotoxic effect of each test compound in A549, HepG2, JeKo-1, and/or MDA-MB-231 cells are determined by plotting a dose-response curve to calculate the concentration of test compound that produces half of the maximum cytotoxic effect.

HEK-293 [3] = test: ApoTox-Glo Triplex assay (live-dead ratio), HEK-293; details: Homo sapiens, HEK293, 48 h, HEK-293, 2-day incubation
Description: The effects of test compounds on cell viability and apoptosis are determined using the ApoTox-Glo Triplex assay kit (Promega G6320) according to the following protocol. The human cancer cell line (e.g., HepG2) and a non-cancer human cell line (e.g., HEK-293), are seeded at 20,000 cells per well in a 96-well plate. After 1 day, the cells are treated with test compounds at various final concentrations (e.g., 10 nM, 31.6 nM, 100 nM, 316 nM, 1 μM, 3.16 μM, 10 μM, 20 μM, etc.). After a 2-day incubation period, the ApoTox-Glo Triplex assay is performed according to the kit manufacturer's protocol. […] After incubation for 30 minutes at 37° C., the fluorescence signal is measured at two wavelength sets (400Ex/505Em) and (485Ex/520Em) to assess live-cell protease activity and dead-cell protease activity respectively. […] After incubation for 30 minutes at room temperature, the luminescent signal is measured using a microplate reader. […]
The cytotoxic effect of test compounds according to the ApoTox-Glo Triplex assay is calculated as follows. The live-dead ratio is calculated by dividing the fluorescence signal for live-cell protease activity with the fluorescence signal for dead-cell protease activity. […]

MYC RNA = test: RT-qPCR of MYC RNA in human cancer cell lines; details: 24 h, about 1 μM, 1-day incubation, e.g., A549, HepG2, beta-actin normalized, vs DMSO, read-out: % reduction of MYC RNA
Description: The level of reduction of MYC RNA following treatment with test compounds is assessed using RT-qPCR according to the following protocol. The human cancer cell lines (e.g., A549, HepG2) are seeded at 20,000 cells per well in a 96-well plate. After 1 day, the cells are treated with test compounds at a final concentration of about 1 μM. After a 1-day incubation period, the supernatant is removed from the wells and lysis solution from the Cells-to-CT 1-Step Power SYBR Green Kit (Invitrogen A25599) is added to create cell lysates, according to the kit manufacturer's protocol. The kit manufacturer's protocol is then followed to perform RT-qPCR for each sample using a pair of MYC-specific primers (e.g., SEQ ID NO: 4 and SEQ ID NO: 5) to detect MYC RNA, as well as a pair of beta-actin-specific primers (e.g., SEQ ID NO: 6 and SEQ ID NO: 7) to detect beta-actin RNA, which serves as a loading control. The relative expression levels of MYC and beta-actin RNAs are calculated using a standard curve generated from a dilution series of untreated cell lysates. The normalized level of MYC RNA following treatment with a test compound is calculated by dividing the relative expression level of MYC in the sample by the relative expression level of beta actin in the same sample. The value so obtained is presented as a percentage of that of the no-compound, solvent only (DMSO)-treated sample. A lower percentage of MYC RNA in a sample with respect to the DMSO-treated sample indicates greater percentage reduction in MYC RNA levels due to the test compound, and vice versa.

JeKo-1 = test: CCK-8 cell viability assay, JeKo-1; details: Homo sapiens; CCK-8, JeKo-1, 2-day or 3-day incubation, cytotoxic effect
Description: as §1

HEK-293 [4] = test: CellTiter-Glo 2.0 cell viability assay, HEK-293; details: Homo sapiens, HEK293, 48 h; CellTiter-Glo 2.0, HEK-293, 2-day incubation
Description: as §2

Cc1nc(C)c(-c2ccc(=O)n(CC3CCN(c4ncnc5ncccc45)CC3)n2)s1 [6-(2,4-dimethylthiazol-5-yl)-2-((1-(pyrido[2,3-d]pyrimidin-4-yl)piperidin-4-yl)methyl)pyridazin-3(2H)-one]
pIC50 (HepG2 [1]): 7.00
% reduction of MYC protein (MYC protein): 67%
pIC50 (MDA-MB-231): 6.10
pIC50 (HepG2 [2]): 6.52
pIC50 (HEK-293 [3]): 4.44
inhibition at 1 µM (MYC RNA): 45%
pIC50 (JeKo-1): 6.40
pIC50 (HEK-293 [4]): 4.14
